Assay in all cases: two-fold agar dilution MIC, Mueller-Hinton agar
Holding throughout (assay type): cell-based

In experiment [1] the test system is Staphyloccocus aureus Smith. To be noted: Staphylococcus aureus, read-out: Minimum Inhibitory Concentration. As for the experimental part:
(§1) The in vitro antibiotic activities are determined by a two-fold agar dilution method using Mueller-Hinton agar, 10 ml per Petri dish. The agar is inoculated with one loopful (0.001 ml loop) of a 1:10 dilution of a 24 hour broth culture of the indicated test organism and incubated at 37° C. for 24 hours. Appropriate fortimicins are used as control antibiotics. The activities, listed in the following Table I, minimum inhibitory concentrations(MIC) are expressed in mcg/ml.

For experiment [2], the system named is Escherichia coli Juhl. To be noted: read-out: Minimum Inhibitory Concentration. As for the experimental part:
as §1

Experiment [3] concerns Streptoccocus faecalis 10541. To be noted: read-out: Minimum Inhibitory Concentration. As for the experimental part:
as §1

Experiment [4] concerns Pseudomonas aeruginosa KY 8516. To be noted: read-out: Minimum Inhibitory Concentration. Here is the method:
as §1

Experiment [5] deals with Proteus mirabilis Fin. #9. As to conditions: read-out: Minimum Inhibitory Concentration. As for the experimental part: as §1
Experiment [6] deals with Salmonella typhimurium Ed #9. As to conditions: Salmonella enterica, read-out: Minimum Inhibitory Concentration. Here is the method: as §1
The subject of experiment [7] is Pseudomonas aeruginosa 209. To be noted: read-out: Minimum Inhibitory Concentration. Here is the method: as §1
Experiment [8] deals with Proteus vulgaris JJ. To be noted: read-out: Minimum Inhibitory Concentration. Here is the method: as §1
The subject of experiment [9] is Pseudomonas aeruginosa KY 8512. To be noted: read-out: Minimum Inhibitory Concentration. As for the experimental part:
as §1

The test system of experiment [10] is Pseudomonas aeruginosa BMH #10. As to conditions: read-out: Minimum Inhibitory Concentration. Here is the method:
as §1

The test system of experiment [11] is Providencia 1577. As to conditions: read-out: Minimum Inhibitory Concentration. As for the experimental part:
as §1

For experiment [12], the system named is Pseudomonas aeruginosa 27853. To be noted: read-out: Minimum Inhibitory Concentration. As for the experimental part:
as §1

Experiment [13] concerns Escherichia coli BL 3676(Res). To be noted: read-out: Minimum Inhibitory Concentration. Here is the method:
as §1

Experiment [14] has as its system Serratia marcescens 4003. To be noted: read-out: Minimum Inhibitory Concentration. As for the experimental part: as §1
The subject of experiment [15] is Enterobacter aerogenes 13048. To be noted: read-out: Minimum Inhibitory Concentration. Here is the method: as §1
Experiment [16] concerns Klebsiella pneumoniae 10031. As to conditions: read-out: Minimum Inhibitory Concentration. As for the experimental part:
as §1

Experiment [17] has as its system Shigella sonnei 9290. As to conditions: 37° C., 24 hours, read-out: Minimum Inhibitory Concentration. As for the experimental part:
as §1

Where [18] appears, read: Staphyloccocus aureus Smith, agar dilution, 37° C., 24 hours.
Setting [19] is: Escherichia coli Juhl, agar dilution, 37° C., 24 hours.
Setting [20] is: Streptoccocus faecalis 10541, agar dilution, 37° C., 24 hours.
The mark [21] stands for this setting: KY8516, Pseudomonas aeruginosa KY 8516, agar dilution, 37° C., 24 hours.
Setting [22] is: Proteus mirabilis Fin. #9, agar dilution, 37° C., 24 hours.
Setting [23] is: Salmonella typhimurium Ed #9, agar dilution, 37° C., 24 hours.
Setting [24] is: Pseudomonas aeruginosa 209, agar dilution, 37° C., 24 hours.
Setting [25] is: Proteus vulgaris JJ, agar dilution, 37° C., 24 hours.
[26] abbreviates: KY8512, Pseudomonas aeruginosa KY 8512, agar dilution, 37° C., 24 hours.
[27] abbreviates: Pseudomonas aeruginosa BMH #10, agar dilution, 37° C., 24 hours.
[28] abbreviates: Providencia 1577, agar dilution, 37° C., 24 hours.
Setting [29] is: Serratia marcescens 4003, agar dilution, 37° C., 24 hours.
Where [30] appears, read: Klebsiella aerogenes, Enterobacter aerogenes 13048, agar dilution, 37° C., 24 hours.
Where [31] appears, read: Klebsiella pneumoniae 10031, agar dilution, 37° C., 24 hours.
Where [32] appears, read: Pseudomonas aeruginosa, KY8512, 24 h.
Setting [33] is: Pseudomonas aeruginosa, 27853, 24 h.
[34] abbreviates: Escherichia coli BL 3676(Res), agar dilution, 37° C., 24 hours.

Molecules are shown by their SMILES. Structures can show the parent of a compound that is named as a salt. Where two headings read alike, the source gives them in different places.

As for `CC(N)C1CCC(N)C(OC2C(N)CC(O)C(N(C)C(=O)CN)C2O)O1` (stereo not shown) [2-Deoxy-3-O-demethylfortimicin A . 4HCl, 2-Deoxy-3-O-Demethylfortimicin A tetrahydrochloride], the MIC turned out to be 0.39 µg/mL in experiment [1] (setting [18]); 6.2 µg/mL in experiment [2] (setting [19]); 50 µg/mL in [3] (setting [20]); 100 µg/mL in experiment [4] (setting [21]); 3.1 µg/mL in experiment [5] (setting [22]); 1.56 µg/mL in experiment [6] (setting [23]). In addition, the MIC in experiment [7] (setting [24]) was found to be 100 µg/mL; in [8] (setting [25]), 3.1 µg/mL; in experiment [9] (setting [26]), 3.1 µg/mL; in [10] (setting [27]), 0.78 µg/mL; in [11] (setting [28]), 1.56 µg/mL; in experiment [12] (Pseudomonas aeruginosa 27853, agar dilution, 37° C., 24 hours), 6.2 µg/mL. Also, the MIC in experiment [13] (Escherichia coli, 24 h) came out at 12.5 µg/mL; in experiment [14] (setting [29]), 3.1 µg/mL; in [15] (setting [30]) it was 3.1 µg/mL; in [16] (setting [31]) it was 3.1 µg/mL; in [17], 12.5 µg/mL.
Turning to `COC1CC(N)C(OC2OC(C(C)N)CCC2N)C(O)C1N(C)C(=O)CN` (stereo not shown) [2-Deoxyfortimicin A . 4 HCl, 2-Deoxyfortimicin A tetrahydrochloride], the MIC in [1] (setting [18]) came to 0.78 µg/mL; in experiment [2] (setting [19]), 6.2 µg/mL; in experiment [3] (setting [20]), 50 µg/mL; in experiment [4] (setting [21]) it was 50 µg/mL; in experiment [5] (setting [22]), 6.2 µg/mL; in [6] (setting [23]), 1.56 µg/mL. Also, the MIC in experiment [7] (setting [24]) amounted to 100 µg/mL; in experiment [8] (setting [25]), 3.1 µg/mL; in [9] (setting [32]) it was 12.5 µg/mL; in experiment [10] (setting [27]), 0.78 µg/mL; in [11] (setting [28]), 3.1 µg/mL; in experiment [12] (setting [33]), 12.5 µg/mL. Further, the MIC in experiment [13] (setting [34]) was determined as 25 µg/mL; in [14] (setting [29]), 3.1 µg/mL; in experiment [15] (setting [30]) it was 3.1 µg/mL; in [16] (setting [31]), 1.56 µg/mL; in experiment [17], 12.5 µg/mL.
As for `CC(N)C1CCC(N)C(OC2C(N)C(O)C(O)C(N(C)C(=O)CN)C2O)O1` (stereo not shown) [3-O-Demethylfortimicin A . 4HCl, 3-O-demethylfortimicin A tetrahydrochloride], the MIC was 0.54 µg/mL in experiment [1] (setting [18]); 2.1 µg/mL in experiment [2] (setting [19]); 17 µg/mL in [3] (setting [20]); 69 µg/mL in experiment [4] (setting [21]); 2.1 µg/mL in experiment [5] (setting [22]); 1.1 µg/mL in [6] (setting [23]). Further, the MIC in [7] (setting [24]) stood at 69 µg/mL; in experiment [8] (setting [25]), 2.1 µg/mL; in experiment [9] (setting [26]), 2.1 µg/mL; in experiment [10] (setting [27]), 0.27 µg/mL; in [11] (setting [28]) it was 1.1 µg/mL; in experiment [13] (setting [34]), 8.6 µg/mL. Moreover, the MIC amounted to 4.3 µg/mL in [14] (setting [29]), 2.1 µg/mL in [15] (setting [30]), 1.1 µg/mL in experiment [16] (setting [31]) and 4.3 µg/mL in experiment [17].
For `COC1C(O)C(N)C(OC2OC(C(C)N)CCC2N)C(O)C1N(C)C(=O)CN` (stereo not shown) [Fortimicin A . 4HCl, fortimicin A tetrahydrochloride], the MIC in experiment [1] (24 h) was determined as 0.78 µg/mL; in experiment [2] (Escherichia coli, 24 h), 6.2 µg/mL; in [3] (24 h), 50 µg/mL; in experiment [4] (Pseudomonas aeruginosa, KY8516, 24 h), 100 µg/mL; in experiment [5] (Proteus mirabilis, 24 h) it was 6.2 µg/mL; in experiment [6] (TYPHIMURIUM, 24 h), 1.56 µg/mL. Also, the MIC is 100 µg/mL in [7] (Pseudomonas aeruginosa, 209, 24 h); 3.1 µg/mL in experiment [8] (Proteus vulgaris, 24 h); 12.5 µg/mL in experiment [9] (setting [32]); 0.78 µg/mL in experiment [10] (Pseudomonas aeruginosa, 24 h); 6.2 µg/mL in experiment [11] (Providencia, 1577, 24 h); 12.5 µg/mL in [12] (setting [33]). For the same compound, the MIC in [13] (Escherichia coli, 24 h) stood at 25 µg/mL; in experiment [14] (Serratia marcescens, 4003, 24 h), 3.1 µg/mL; in experiment [15] (Klebsiella aerogenes, 13048, 24 h) it was 3.1 µg/mL; in experiment [16] (Klebsiella pneumoniae, 10031, 24 h), 3.1 µg/mL; in [17] it was 12.5 µg/mL.
